Experimental findings from ChEMBL document CHEMBL1154813, “Asymmetric synthesis of anticancer beta-lactams via Staudinger reaction: utilization of chiral ketene from carbohydrate” (2010) are described below.

The structures appear in SMILES notation.

Format in all cases: functional
The nature of experiment [1]: Cytotoxicity against human BRO cells by MTT assay.
Experiment [2] concerns SK-OV-3. Put plainly: Cytotoxicity against human SKOV3 cells by MTT assay. On the technique in general: Tetrazolium assays rely on reduction of a dye to a coloured formazan, in cell work by metabolically active cells.
The test system of experiment [3] is HL-60. In words: Cytotoxicity against human HL60 cells by MTT assay.
The test system of experiment [4] is MDA-MB-231. In words: Cytotoxicity against human MDA-MB-231 cells by MTT assay.
The test system of experiment [5] is K562. Put plainly: Cytotoxicity against human K562 cells by MTT assay.
The test system of experiment [6] is PC-3. Put plainly: Cytotoxicity against human PC3 cells by MTT assay.
Experiment [7] deals with HT-29. Put plainly: Cytotoxicity against human HT-29 cells by MTT assay.

On to `CC(=O)O[C@@H]1C(=O)N(c2cc3c4ccccc4ccc3c3ccccc23)[C@H]1c1ccccc1`, for which the INH in experiment [1] stood at 6.1 µM; in experiment [2], 6.8 µM; in experiment [3], 0.7 µM; in experiment [4] it was 0.8 µM; in experiment [5], 1.1 µM; in experiment [6] it was 1.4 µM. The INH in experiment [7] is 0.7 µM.
`CC(=O)O[C@H]1C(=O)N(c2cc3c4ccccc4ccc3c3ccccc23)[C@@H]1c1ccccc1`: the INH in experiment [1] is 22 µM; in experiment [2], 6.1 µM; in experiment [3] it was 5.4 µM; in experiment [4], 8.5 µM; in experiment [5] it was 6 µM; in experiment [6], 15.5 µM. This compound also showed an INH in experiment [7] of 8.3 µM.
Regarding `CC(=O)O[C@H]1C(=O)N(c2cc3c4ccccc4ccc3c3ccccc23)[C@@H]1c1ccccc1` (racemic), the INH was 15.7 µM in experiment [1]; 8.9 µM in experiment [2]; 0.7 µM in experiment [3]; 8.7 µM in experiment [4]; 1.1 µM in experiment [5]; 11.1 µM in experiment [6]. In addition, the INH in experiment [7] was 2 µM.
